Assay results taken from patent publication US20190119282A1, “IMIDAZOPYRIDAZINES USEFUL AS INHIBITORS OF THE PAR-2 SIGNALING PATHWAY” (Vertex Pharmaceuticals Incorporated, priority 2013, published 2019).

Legend:
[1] = biological target: T1, PAR2 (HT-29 cells, SLIGKV activation) (Homo sapiens, UniProt P55085); assay: Ca FLIPR TETRA assay, ANTAGONIST mode, stimulation with 8 μM SLIGKV; format: cell-based; conditions: HT-29 cells
T1 construct: host or cells: HT-29 cells
T1 sequence (P55085 26-397): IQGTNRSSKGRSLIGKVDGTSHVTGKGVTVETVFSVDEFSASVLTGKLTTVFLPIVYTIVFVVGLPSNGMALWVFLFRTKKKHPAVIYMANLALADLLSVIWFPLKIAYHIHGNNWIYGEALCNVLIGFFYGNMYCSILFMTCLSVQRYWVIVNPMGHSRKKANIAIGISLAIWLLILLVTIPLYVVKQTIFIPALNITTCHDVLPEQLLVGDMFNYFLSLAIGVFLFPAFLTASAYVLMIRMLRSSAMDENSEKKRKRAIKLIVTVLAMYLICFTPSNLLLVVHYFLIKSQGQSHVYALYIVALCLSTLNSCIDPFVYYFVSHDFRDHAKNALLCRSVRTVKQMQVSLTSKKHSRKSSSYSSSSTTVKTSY
Protocol: (§1) Example 60: Protocol for Testing PAR2 Compounds in ANTAGONIST Mode Using the Ca FLIPR^TETRA Assay (384 Well)
(§2) 23000 HT-29 cells (ATCC# HTB-38) were plated in 384-well black, transparent-flat bottom plates and incubated in 25 uL of 1% FBS/McCoy's media ON at 37° C. under an atmosphere of 5% CO2. The following day, 25 uL FLIPR calcium 5 Molecular Devices assay reagent (Cat: R-8186) was added. Plates were incubated at 37° C. and r. t. for 45 min and 15 min, respectively. Compounds dilutions were prepared in 100% DMSO using a Biomek FX and diluted 20-fold in HBSS and then 5.5 uL was added directly to the cells by the FLIPR^TETRA (10× dilution) using FLIPR Tetra Pipette tips, black, non-sterile, 384 Molecular Devices (Cat: 9000-0764).
(§3) A first read was performed to determine whether the test compounds on their own can activate Ca2+ responses.
(§4) The cells were incubated with the compounds for 30 min at r. t. and then read in ANTAGONIST mode in the same plate by stimulating with 6.2 uL of a fixed concentration of the activator: final concentrations: 8 μM SLIGKV, 1 U/mL Thrombin, 3.1 U/mL trypsin, or 0.6 μM UTP.

[2] = biological target: T2, PAR2 (HT-29 cells, trypsin activation) (Homo sapiens, UniProt P55085); assay: Ca FLIPR TETRA assay, ANTAGONIST mode, stimulation with 3.1 U/mL trypsin; format: cell-based
T2 construct: host or cells: HT-29 cells
T2 sequence (P55085 26-397): T1 sequence (P55085 26-397)
Protocol: as §1, §2, §3, §4

[3] = tested on: Thrombin-stimulated Ca2+ response in HT-29 cells; assay: Ca FLIPR TETRA assay, ANTAGONIST mode, stimulation with 1 U/mL Thrombin; format: cell-based, human; conditions: Homo sapiens, HT-29 cells, stimulation with 1 U/mL Thrombin
Protocol: as §1, §2, §3, §4

[4] = Table 8, reported compounds of WO2005/030773, JP2003286171, JP2004170323
[5] = Table 8, reported compounds of WO2005/030773, JP2003286171, JP2004170323, HT-29 cells
[6] = Table 6, HT-29 cells, 3.1 U/mL trypsin

Row | IC50 [1, 4] [µM] | IC50 [2, 5] [µM] | IC50 ([1]; Table 6, 8 μM SLIGKV) [µM] | IC50 [2, 6] [µM] | SMILES | further results
1 | 4.67 | 28 |  |  | O=C(c1cc2nc(-c3ccccc3)cc(C(F)(F)F)n2n1)N1CCCCC1 [Compound P-594, reference compound] | 
2 |  |  | 23 |  | C[C@H]1CN(C(=O)c2cn3nc(-c4ccc(F)cc4)c(C(F)(F)F)cc3n2)CCN1C(=O)OCc1ccccc1 [Compound I-580] | Trypsin % @ 50 ([2]; Table 6, @ 50 (μM), HT-29 cells, 3.1 U/mL trypsin): 48% @ 50
3 | 2.8 | 14 |  |  | O=C(c1cc2nc(-c3ccccc3)cc(C(F)(F)F)n2n1)N1CCC(O)CC1 [Compound P-609, reference compound] | 
4 |  |  | 25 | 19 | CC(C)c1cc(-c2ccc(F)cc2)nn2cc(C(=O)N3CCCCC34COC4)nc12 [Compound I-587] | 
5 | > 50 | > 50 |  |  | CC1CCCCN1C(=O)c1cc2nc(-c3ccc(Cl)cc3)cc(C(F)(F)F)n2n1 (centres unmarked) [Compound P-598, reference compound] | 
6 |  |  |  |  | O=C(c1cn2nc(-c3ccc(F)cc3)cc(C(F)(F)F)c2n1)N1CCCCC1c1nccs1 (centres unmarked) [Compound I-73] | IC50 [3]: 1.7 µM; IC50 ([1]; stimulation with 8 μM SLIGKV): 0.74 µM; IC50 ([2]; HT-29 cells, stimulation with 3.1 U/mL trypsin): 0.92 µM
7 | > 50 | > 50 |  |  | O=C(c1cc2nc(-c3ccccc3)cc(C(F)(F)F)n2n1)N1CCC(c2ccc(F)cc2)C1 (centres unmarked) [Compound P-607, reference compound] | 
8 |  |  | 37 | > 50 | CC(C)c1cc(Cl)nn2cc(C(=O)N3CCN(C(=O)C4(O)CCOCC4)CC3(C)C)nc12 [Compound I-588] | 
9 |  |  |  |  | CC(C)(C)c1cc(-c2ccc(F)cc2)nn2cc(C(=O)N3CCC(O)CC3(C)C)nc12 (centres unmarked) [Compound I-484, (8-(tert-butyl)-6-(4-fluorophenyl)imidazo[1,2-b]pyridazin-2-yl)(4-hydroxy-2,2-dimethylpiperidin-1-yl)methanone] | IC50 ([3]; antagonist mode): > 1 µM; IC50 ([1]; antagonist mode, stimulation with 8 μM SLIGKV): 0.0028 µM; IC50 ([2]; HT-29 cells, antagonist mode, stimulation with 3.1 U/mL trypsin): 0.0096 µM
10 | 0.48 |  |  |  | O=C(O)C1CCCCN(C(=O)c2cc3nc(-c4ccc(F)cc4)cc(C(F)(F)F)n3n2)C1 (centres unmarked) [Compound P-610, reference compound] | Trypsin % @ 50 μM ([2]; Table 8, @ 50 μM, reported prior-art compounds): 63% @ 50 μM
11 |  |  | 27 | 24 | Cc1cc(-c2ccc(F)cc2)nn2cc(C(=O)N3CCC4(COC4)C3)nc12 [Compound I-585] | 
12 | 23 | 33 |  |  | O=C(c1nn2c(C(F)(F)F)cc(-c3ccccc3)nc2c1Br)N1CCC(c2ccc(F)cc2)C1 (centres unmarked) [Compound P-608, reference compound] | 
13 | 0.061 | 0.88 |  |  | O=C(c1cc2nc(-c3ccccc3)cc(C(F)(F)F)n2n1)N1CCCCCC1 [Compound P-601, reference compound] | 
14 | 17.4 | 27 |  |  | CN(CCO)C(=O)c1cc2nc(-c3ccc(Cl)cc3)cc(C(F)(F)F)n2n1 [Compound P-597, reference compound] | 
15 |  |  | 20 | > 50 | CC(C)c1cc(C2CCOCC2)nn2cc(C(=O)N3CCN(C(=O)C4(O)CCC4)CC3(C)C)nc12 [Compound I-590] | 
16 | 0.11 | 1.25 |  |  | O=C(O)C1CCCCN(C(=O)c2cc3nc(-c4ccc(Cl)cc4)cc(C(F)(F)F)n3n2)C1 (centres unmarked) [Compound P-611, reference compound] | 
17 |  |  | 50 | 46 | O=C(c1cn2nc(-c3ccc(F)cc3)cc(C(F)(F)F)c2n1)N1CCN(Cc2ccccn2)CC1 [Compound I-581] | 
18 | 10.8 | > 50 |  |  | O=C(c1ccccc1)N1CCN(C(=O)c2cc3nc(-c4ccccc4)cc(C(F)(F)F)n3n2)CC1 [Compound P-596, reference compound] | 
19 |  |  | 22 | 2 | CCC(=O)N1CCN(C(=O)c2cn3nc(-c4ccc(F)cc4)cc(C(F)(F)F)c3n2)CC1 [Compound I-584] | 
20 |  |  | 27 | > 50 | CC(C)c1cc(Cl)nn2cc(C(=O)N3CCN(C(=O)C4(O)CCC4)CC3(C)C)nc12 [Compound I-589] | 
21 | 0.37 | > 50 |  |  | O=C(c1ccccc1)N1CCN(C(=O)c2cc3nc(-c4ccc(Cl)cc4)cc(C(F)(F)F)n3n2)CC1 [Compound P-606, reference compound] | 
